Earlier results in patent US20120021048A1, “Combination Dosage Compositions Comprising a Cholesterol-Lowering Agent, a Renin-Angiotensin System Inhibitor, an Antioxidant Agent and an Antiplatelet Agent for Treatment and Prevention of Cardiovascular Disease” (Nucitec S.A. de C.V., priority 2010, published 2012).
Read-outs that look alike come from different tables or passages of the source.

What was measured:
macrophages = settings: lycopene added to macrophages in cell culture; cited from earlier work
[1] = expected value; doses of polypill (atorvastatin 20 mg, lycopene 30 mg); cited from earlier work
[2] = in vivo pure lycopene supplementation; cited from earlier work
[3] = expected value, single agent at polypill dose, cited from earlier work

| SMILES | suppression of cellular cholesterol synthesis (macrophages) | Reduction in concentration (LDL-cholesterol) [1] [mg/dL] | reduction of plasma LDL cholesterol concentration [2] [%] | % reduction in risk of Ischaemic heart disease [3] [%] | % reduction in risk of Ischaemic heart disease ([3]; listed as acetylsalicylic acid) | % reduction in risk of Ischaemic heart disease ([3]; listed as atorvastatin) |
| --- | --- | --- | --- | --- | --- | --- |
| CC(C)=CCC/C(C)=C/C=C/C(C)=C/C=C/C(C)=C/C=C/C=C(C)/C=C/C=C(C)/C=C/C=C(\C)CCC=C(C)C [Lycopene] | approximately 40% | 14 to 20 | 14 | ~20 | – | – |
| CC(=O)Oc1ccccc1C(=O)O [Acetylsalicylic Acid] | – | – | – | 32 | about 32% | – |
| CC(C)c1c(C(=O)Nc2ccccc2)c(-c2ccccc2)c(-c2ccc(F)cc2)n1CC[C@@H](O)C[C@@H](O)CC(=O)O [Atorvastatin] | – | 70 | – | 61 | – | about 61% |
| CCOC(=O)[C@H](CCc1ccccc1)N[C@@H](C)C(=O)N1[C@H](C(=O)O)C[C@@H]2CCC[C@@H]21 [Ramipril] | – | – | – | ~25 | – | – |
